From PMC8838521, “Antimicrobial, Cytotoxic and Mutagenic Activity of Gemini QAS Derivatives of 1,4:3,6-Dianhydro-L-iditol” (Molecules, 2022) come the findings set out here.

By MIC is commonly meant the smallest concentration in the dilution series that meets the test's criterion for growth inhibition. Broadly, the IC50 is the concentration at which inhibition is half-maximal.

The test system of data set [1] is Candida albicans ATCC 10231. The data set is described as follows: Antimicrobial activity, microdilution MIC, C. albicans. The data set is classed as cell-based. Conditions: Candida albicans, ATCC10231, 24 h, MIC90, 24 h, RPMI; read-out: MIC C. albicans ATCC 10231. The procedure: (§1) The antimicrobial potential of the tested agents was evaluated against two reference strains of bacteria: Staphylococcus aureus ATCC 25923 and Escherichia coli K12, two reference strains of pathogenic yeasts, Candida albicans ATCC10231 and Candida glabrata DSMZ11226, as well as 20 strains of clinical isolates of S. aureus collected from patients with skin and soft tissue infections (n = 8) and strains derived from subclinical bovine mastitis milk samples (n = 12). Four of these strains, two isolated from human infections and two isolated from bovine mastitis, were classified as MRSA (Methicillin-resistant Staphylococcus aureus). All of them were mecA positive and their methicillin resistance was confirmed with the disc diffusion assay. The remaining 16 strains were MSSA (Methicillin-sensitive Staphylococcus aureus). The assays were performed using a serial, two-fold dilution method in 96-well microtiter plates under conditions recommended by the Clinical and Laboratory Standards Institute (CLSI, Pittsburgh, PA, USA). The aim of this procedure was the determination of the MIC parameter (Minimum Inhibitory Concentration)—the minimum concentration of a tested agent capable to inhibit the growth of a specified strain of microorganism. The agents were solubilized in deionized, sterile water to a final concentration of […]. Subsequently, solutions were mixed (1:1 (v/v)) with 2 × concentrated liquid medium, Mueller-Hinton Broth 2—cation adjusted (MHB2) for evaluation of antibacterial activity and RPMI in the case of evaluation of the antifungal activity. […] Subsequently, the solutions were mixed with MHB2 or RPMI medium to get the final concentration of 8.192 mg/mL (8192 µg/mL). In the next step, the serial, two-fold dilutions of the tested agents (over the range of concentrations from 8192 to 8 µg/mL for reference strains of bacteria and yeasts and from 512 to 1.0 µg/mL for clinical isolates of S. aureus) were prepared in 96-well microtitration plates in the final volume of 100 μL of the appropriate medium.
(§2) The pure cultures of yeast strains were grown on the Sabouraud Dextrose Agar (SDA) for 18–24 h at 37 °C. Suspensions of the microorganisms were prepared by taking one loop of pure culture into sterile water and adjusting optical density to 0.1 at 660 nm and further 50-fold dilution in RPMI 1640 medium resulting in cells concentration of approximate 2 × 10^4 CFU/mL. One hundred μL of that suspension was inoculated to the wells of the microtitration plate containing appropriate dilutions of the agents. The positive growth control of each strain (both bacteria and yeasts) was performed in the wells without the tested substances. The negative control containing only the media was included in each assay. Microtiter plates were incubated at 37 °C for 24 h. Following the incubation period, determination of the MIC values of the tested agents was carried out by measuring the absorbance at 531 nm using a Victor^3 microplate reader (Perkin Elmer, Inc., Waltham, MA, USA). The lowest concentration of the agent causing inhibition of growth equal to or higher than 90% (MIC90) of growth control was taken as the MIC value. Each test was repeated three times.

The subject of data set [2] is Candida glabrata DSMZ 11226. Kind of data set: Antimicrobial activity, microdilution MIC, C. glabrata. Conditions: Nakaseomyces glabratus, DSMZ11226, 24 h, MIC90, 24 h, RPMI; read-out: MIC C. glabrata DSMZ 11226. The data set is classed as cell-based. The protocol: as §1, §2
Background: In broth dilution the organism is exposed to a series of concentrations in liquid medium.

In data set [3] the test system is human keratinocytes (HaCaT cell line). Kind of data set: Cytotoxicity, MTT assay. The format is cell-based. The note with it: Homo sapiens, HaCaT; MTT, 24 h incubation; read-out: HaCaT IC50. The protocol:
To assess the cytotoxicity of QAS (IC50), the MTT assay on 96-well polystyrene plates was performed for human keratinocytes (HaCaT, Elabscience Biotechnology Inc., Houston, Texas, USA). The assay utilizes colorimetric determination of the cell metabolic activity and the color intensity reflects the number of live cells that can be measured spectrophotometrically. The cell line was cultured in a Dulbecco’s modified Eagle Medium (Invitrogen) supplemented with 10% fetal bovine serum (Sigma Aldrich) (v/v), 100 units/mL of penicillin, 100 μg/mL of streptomycin, and 2 mM L-glutamine and was stored at 37 °C in a humidified 5% CO2 incubator. Briefly, a day after plating of 500 cells per well, a series of concentrations (0.5–200 μg/mL) of the test compounds was applied. DMSO was added to the control cells at a final concentration of 1.0% (v/v), which was related to the maximal concentration of the solvent compounds used in the experiment. After 24 h of incubation with the QAS at 37 °C (humidified 5% CO2 incubator), a medium containing 1 mg/mL of MTT (3-(4,5-dimethylthiazol-2-yl)-2,5-diphenyltetrazolium bromide) was added to the wells up to a final concentration of 0.5 mg/mL. Subsequently, the plates were incubated at 37 °C for 4 h. Then, the medium was removed by suction, and the formazan product was solubilized with DMSO. The background absorbance at 630 nm was subtracted from that at 570 nm for each well (Epoch, BioTek Instruments, Winooski, VT, USA). Six replicates were conducted for each concentration. All experiments were repeated at least twice and the resulting IC50 values were calculated with GraFit 7 software (v. 7.0, Erithacus, Berkley, CA, USA).
A general note: Tetrazolium assays rely on reduction of a dye to a coloured formazan, in cell work by metabolically active cells.

Data set [4] is described as follows: Solubility observed during assays. The note with it: for Solubility in water and DMSO: for Ames test; for Solubility in water: observed during antimicrobial assays, DMSO used for solubilisation. The data set is classed as physicochemical.

“And” between values parts separate entries of the source, which are not always exact repeats. Equal values may be shown once. “Also recorded” adds a separate entry of the source. Where only a bound is given, the exact number is not on record here.

On to `CCCCCCCC[N+](C)(C)C1COC2C1OCC2[N+](C)(C)CCCCCCCC` (stereo not shown) [QAS 9], for which the MIC is 1020 µg/mL and 1410 µM in data set [1]; 1020 µg/mL and 1410 µM in data set [2]. For the same molecule, the IC50 in data set [3] was greater than 100 µg/mL. The “Solubility in water and DMSO” value in data set [4] was “insufficient solubility in both water and DMSO”. Moreover, the Solubility in water entry in data set [4] is on record as “suppressed water solubility; also recorded: lower solubility in water”.

Regarding `CCCCCCCCCC[N+](C)(C)C1COC2C1OCC2[N+](C)(C)CCCCCCCCCC` [QAS 10, N,N’-(1,4:3,6-Dianhydro-2,5-dideoxy-L-iditol-2,5-diyl)-bis(N,N-dimethyl-N-decylammonium) Ditrifluoromethanesulfonate], the minimum inhibitory concentration (MIC) in data set [1] is 32 µg/mL and 40 µM. The minimal inhibitory concentration (MIC) in data set [2] is 16 µg/mL and 20 µM. In addition, the IC50 in data set [3] worked out at 12.8 ± 1.25 µg/mL. In addition, in data set [4], the “Solubility in water and DMSO” value was “insufficient solubility in both water and DMSO”; the Solubility in water result is given as “suppressed water solubility; also recorded: lower solubility in water”.
